Measurements published in patent US7297689B2, “Method for preparing peritoneal dialysate” (Tokai University Educational System, priority 1998, dated 2007).
Entries after “also recorded” stand apart in the source; their conditions may differ. Like-named read-outs stand apart in the source and are kept apart here.

Experiments:
VEGF mRNA [1] = assay: VEGF mRNA expression in cultured rat mesothelial cells (semiquantitative RT-PCR); assay type: cell-based; settings: 3 hours
Description: Peritoneum was obtained from 6-week-old male CD (SD) IGS rats (Charles-River, Kanagawa, Japan). Mesothelial cells were isolated based on the method of Hjelle et al. (Hjelle J T et al., Perit Dial Int, 9: 341-347 (1989)) and cultured in Dulbecco's modified Eagle's medium (DMEM) containing 10% fetal bovine serum. The mesothelial cells at passage 7 to 10 were cultured for 3 hours in a CO2 incubator in the presence of various concentrations of glucose degradation products (glyoxal, methylglyoxal (Sigma, St. Louis, Mo.), or 3-deoxyglucosone (kindly provided from Fuji Memorial Research Institute, Otsuka Pharmaceutical Co., Kyoto, Japan). The expression of VEGF mRNA was analyzed by semiquantitative RT-PCR. Total RNA was isolated from the mesothelial cells using Rneasy Mini Kit (Qiagen, Germany). Five micrograms of the RNA was reverse-transcribed using oligo(dT)12-18 primers (Gibco BRL, Gaithersburg, Md.) with 200 units of RNase H-free reverse transcriptase (Superscript II: Gibco BRL) and PCR amplification was performed as described previously (Miyata T et al., J Clin Invest, 93: 521-528 (1994)). The sequences of the primers used for the amplification of rat VEGF were 5′-[…]-3′ (SEQ ID NO: 1) and 5′-[…]-3′ (SEQ ID NO: 2). The amplified product was 310 bp long. The primers used for the amplification of rat glyceraldehyde-3-phosphate dehydrogenase. (G3PDH) were 5′-[…]-3′ (SEQ ID NO: 3) and 5′-[…]-3′ (SEQ ID NO: 4) and amplified a 322 bp fragment. The G3PDH served as an internal RNA control to allow comparison of RNA levels among different specimens. […] PCR products resolved by electrophoresis in 1.5% agarose gel and stained with ethidium bromide were quantified by measuring the signal intensity with a quantification program (NIH image). […] Messenger RNA was determined in triplicate and the results were averaged for each experiment. […] The results were averaged and expressed as mean±S.D. The statistical significance was evaluated by analysis of variance (ANOVA). […]

[2] = trapping of methylglyoxal by guanidine, aminoguanidine and biguanide agents; settings: 0.1 M phosphate buffer pH 7.4, 37° C., agent 50 μl of 30 mM
Description: (§1) A mixture (50 μl) of glyoxal, methylglyoxal, and 3-deoxyglucosone (1 mM each) was further mixed with 400 μl of 0.1 M phosphate buffer (pH 7.4), and each (50 μl; 30 mM) of guanidine, aminoguanidine, or a biguanide agent. The resulting mixture was incubated at 37° C. Biguanide agents used were metformin, buformin, and phenformin. After the incubation, glyoxal, methylglyoxal, and 3-deoxyglucosone were converted to quinoxaline derivatives by using o-phenylenediamine, and then the respective concentrations were determined by high performance liquid chromatography.

[3] = subcutaneously administered, rat; cited from earlier work
[4] = subcutaneously administered, mouse; cited from earlier work
[5] = amount of carbonyl compounds other than glucose in peritoneal dialysate (CAPD) effluent, 2,4-DNPH assay; parameters: species or system human; settings: effluent, 0, 10, 50, 250 mM, unincubated and incubated (37° C. for 15 hours)
Description: The peritoneal dialysate effluent was recovered from the patient and filtered with a filter with a pore size of 0.45 μm. Aminoguanidine (Tokyo Kasei Kogyo Co.) was added to the fluid at a concentration of 0, 10, 50, or 250 mM to prepare a sample solution. An aliquot (1 ml) of the sample solution was added into a plastic tube with a screw cap, and the tube was incubated at 37° C. for 15 hours. The sample solutions were stored at −30° C. prior to the incubation.
Each of 400-μl aliquots of sample solutions was mixed with a 400-μl solution of 0.5 N hydrochloric acid containing 1.5 mM 2,4-DNPH (Wako Pure Chemical Industries, Ltd.), and then, the mixture was stirred at room temperature for 30 minutes to react the carbonyl compound with 2,4-DNPH. […] The aqueous layer was recovered and the absorbance thereof was measured at 360 nm in a spectrophotometric microplate reader (Nippon Molecular Devices Co.; SPECTRAmax250).
Aqueous solutions of various glucose concentrations were prepared and the amounts of carbonyl compounds derived from glucose were measured by the same method as described in (i); a calibration curve of glucose concentration vs. concentration of carbonyl compound was prepared based on this experiment.
Respective glucose concentrations of the samples were determined by using a glucose assay kit (Wako Pure Chemical Industries, Ltd.; Glucose CII-Test Wako). […]

[6] = generation of 5-HMF in peritoneal dialysate during heat sterilization (HPLC); settings: sterilization 121° C.
Source text: (§2) Peritoneal dialysates contain a high concentration of glucose as an osmoregulatory agent (1.35-4.0 w/v %). Glucose is unstable to heating and undergoes degradation during heat sterilization or storage. Degradation products of glucose have been reported to include 5-hydroxymethylfurfural (5-HMF), levulinic acid, and acetaldehyde (Richard, J. U. et al., Fund. Appl. Toxic., 4: 843-853 (1984), Nilsson, C. B. et al., Perit. Dial. Int., 13: 208-213 (1993)). The inventors tested aminoguanidine for its inhibiting effect on the generation of carbonyl compounds during heat sterilization of a peritoneal dialysate, by monitoring the quantities of 5-HMF and carbonyl compounds. Since the degree of glucose degradation is affected by pH of the solution, two peritoneal dialysates of acidic pH (pH 5.3) and neutral pH (pH 7.0) were prepared to carry out the experiment. Sterilization temperature was 121° C.
5-HMF was assayed by high performance liquid chromatography (SHIMADZU Co.; LC-10A) (Nilsson, C. B. et al., Perit. Dial. Int., 13: 208-213 (1993)).

[7] = trapping of 3-deoxyglucosone by guanidine, aminoguanidine and biguanide agents; settings: 0.1 M phosphate buffer pH 7.4, 37° C., agent 50 μl of 30 mM
Description: as §1

[8] = generation of carbonyl compounds in peritoneal dialysate during heat sterilization (2,4-DNPH); settings: acidic and neutral pH, sterilization 121° C.
Source text: as §2
Quantification of carbonyl compounds in the peritoneal dialysate was carried out in the same manner as described in Example 1 by measuring the absorbance after the reaction with 2,4-DNPH (Levine, R. L. et al., Methods Enzymol., 233: 346-357 (1994)). Sterilization temperature was 121° C.

[9] = generation of pentosidine on incubation of peritoneal dialysis effluent; parameters: species or system human; settings: peritoneal dialysis effluent, 0, 1, 10, 100 mM, 37° C.
Description: An effluent from a peritoneal-dialysis patient, which had been kept overnight, was centrifuged, and the resulting supernatant was sterilized by filtration (pore size; 0.45 μm). Aminoguanidine (Tokyo Kasei Kogyo Co.) was added to the fluid at a final concentration of 0, 1, 10, or 100 mM. The mixture was incubated at 37° C. The incubation period was […] when assaying pentosidine, and 2 weeks when assaying protein carbonyl. The quantitative assay for pentosidine was performed using HPLC (SHIMADZU Co.; LC-10A) after the hydrolysis of proteins in 6 N HCl at 110° C. (T. Miyata et al., 1996, J. Am. Soc. Nephrol, 7:1198-1206; T. Miyata et al., 1996, Proc. Natl. Acad. Aci. USA, 93:2353-2358). The quantitative determination of protein carbonyl was carried out by measuring the absorbance (Nippon Molecular Devices Co.; SPECTRAmax 250) of hydrazone generated by the reaction of a carbonyl group after incubation with 2,4-dinitrophenylhydrazine (2,4-DNPH; Wako Pure Chemical Industries, Ltd.) (Levine, R. L. et al., Methods Enzymol., 233, 346-357 (1994)).

VEGF protein = VEGF protein release into culture supernatant (ELISA); assay type: cell-based; settings: human microvascular endothelial cells, 0, 200, 400 μM, 24 hours
Description: The release of VEGF protein into the culture supernatant was measured by ELISA for […] cultured for 24 hours in the presence of various concentrations of methylglyoxal. Human microvascular endothelial cells were purchased from Kurabo (Osaka, Japan) and cultured in VEGF-depleted EGM-2 medium (Takara, Tokyo, Japan). The cells were incubated with methylglyoxal in the same manner as rat peritoneum mesothelial cells. The VEGF protein in the culture supernatant prepared in duplicate was quantified by enzyme-linked immunosorbent assay (ELISA) using a kit (Quantikine: R&D Systems, Minneapolis, USA) according to the attached manual. The experiment was repeated three times. The results were statistically analyzed as described above.

VEGF mRNA [10] = assay: VEGF mRNA expression and histology of peritoneal tissue of rats given daily intraperitoneal injections; assay type: in vivo, rat; settings: daily intraperitoneal injection for 10 days
Description: To further assess the biological effects of methylglyoxal on VEGF mRNA expression in the peritoneum in vivo, rats were given various amounts of methylglyoxal into their peritoneal cavity for 10 days. Six-week-old male CD (SD) IGS rats were given a daily intraperitoneal injection of 50 ml/kg of a saline solution containing various concentrations of methylglyoxal for 10 days. Peritoneum was isolated from the parietal walls and investigated for VEGF mRNA expression. Experiments were performed as the above-mentioned in vitro experiments for rat mesothelial cells. However, mRNA was extracted from peritoneal tissues with ISOGEN (Nippon Gene, Tokyo, Japan). In addition, PCR amplification was performed for 28 cycles for VEGF mRNA and for 16 cycles for G3PDH mRNA.

VEGF mRNA [11] = assay: VEGF mRNA expression in human endothelial cells (RT-PCR); assay type: cell-based; settings: 0 to 400 μM
Description: VEGF mRNA expression was then assessed in endothelial cells cultured in the presence of various concentrations (0 to 400 μM) of methylglyoxal. Experiments were performed as those for rat mesothelial cells. However, primers used for human VEGF amplification were 5′-[…]-3′ (SEQ ID NO: 5) and 5′-[…]-3′ (SEQ ID NO: 6). The amplified fragment was 271 bp long. The same primers were used for human and rat G3PDH amplifications.

[12] = trapping of methylglyoxal by albumin; settings: 0.1 M phosphate buffer pH 7.4, 37° C., 50 μl of 100 mg/ml
Description: (§3) A solution (50 μl) consisting of glyoxal, methylglyoxal, and 3-deoxyglucosone (1 mM each) was further mixed with 400 μl of 0.1 M phosphate buffer (pH 7.4), 50 μl of 100 mg/ml bovine serum albumin solution, and the resulting mixture was incubated at 37° C. After the incubation, glyoxal, methylglyoxal, and 3-deoxyglucosone were converted to quinoxaline derivatives by using o-phenylenediamine, and then the respective concentrations were determined by high performance liquid chromatography.

[13] = trapping of glyoxal by albumin; settings: 0.1 M phosphate buffer pH 7.4, 37° C., 50 μl of 100 mg/ml
Description: as §3

Q: Which “VEGF mRNA expression” value (VEGF mRNA [1]; 0 to 400 μM) does the source give for `O=CC(=O)C[C@H](O)[C@H](O)CO` [3-deoxyglucosone] here?
A: Its value is “neither glyoxal nor 3-deoxyglucosone modified VEGF expression”.

Q: Which concentration of methylglyoxal [2] does the source give for `N=C(N)N` [Guanidine, guanidine] here?
A: Its concentration of methylglyoxal is “markedly reducing the concentration of methylglyoxal”.

Q: Which half-lethal dose [3] does the source give for `N=C(N)NN` [aminoguanidine] here?
A: The half-lethal dose was 1258 mg/kg.

Q: What about the half-lethal dose [4] of the same compound?
A: The half-lethal dose was 963 mg/kg.

Q: What about the “amounts of carbonyl compounds other than glucose” value [5] of the same compound?
A: The value was “decreased”.

Q: What about the “generation of 5-HMF” value ([6]; peritoneal dialysate acidic pH (pH 5.3)) of the same compound?
A: Its value is “effectively inhibited the generation of 5-HMF in a concentration-dependent manner”.

Q: What about the “generation of 5-HMF” value ([6]; peritoneal dialysate neutral pH (pH 7.0)) of the same compound?
A: Its value is “effectively inhibited the generation of 5-HMF in a concentration-dependent manner”.

Q: And the “concentration of 3-deoxyglucosone” value [7]?
A: Its value is “markedly reducing the concentration of 3-deoxyglucosone”.

Q: What about the concentration of methylglyoxal [2] of the same compound?
A: The concentration of methylglyoxal was “markedly reducing the concentration of methylglyoxal; also recorded: drastically reduced the concentration of methylglyoxal”.

Q: What about the “generation of carbonyl compounds” value [8] of the same compound?
A: The value was “effectively inhibited the generation of carbonyl compounds in a concentration-dependent manner”.

Q: What about the generation of pentosidine [9] of the same compound?
A: The generation of pentosidine was “inhibit the generation of pentosidine in a concentration-dependent manner”.

Q: With `O=CC=O` [glyoxal] as the compound, how does the “VEGF mRNA expression” value (VEGF mRNA [1]; 0 to 400 μM) read?
A: Its value is “neither glyoxal nor 3-deoxyglucosone modified VEGF expression”.

Q: Which “VEGF protein released into culture supernatant” value (VEGF protein) does the source give for `CC(=O)C=O` [methylglyoxal] here?
A: Its value is “dose-dependent increase of VEGF”.

Q: What about the “peritoneal tissue on optical microscopy” value (VEGF mRNA [10]) of the same compound?
A: Its value is “unaffected”.

Q: What about the “VEGF mRNA expression in parietal peritoneum” value (VEGF mRNA [10]; P<0.05) of the same compound?
A: Its value is “increased significantly”.

Q: What about the “VEGF mRNA expression” value (VEGF mRNA [1]; 400 μM, P<0.0005) of the same compound?
A: The value was “stimulated VEGF mRNA expression”.

Q: What about the “VEGF mRNA expression” value (VEGF mRNA [11]) of the same compound?
A: The value was “rose in a dose-dependent manner”.

Q: Which concentration of methylglyoxal [12] does the source give for “Bovine serum albumin: bovine serum albumin solution, 100 mg/ml; SH group-containing protein” here?
A: The concentration of methylglyoxal was “markedly reducing the concentrations of glyoxal and methylglyoxal”.

Q: What about the concentration of glyoxal [13] of the same compound?
A: The concentration of glyoxal was “markedly reducing the concentrations of glyoxal and methylglyoxal”.
